Assay results as given in ChEMBL document CHEMBL4706556, “Unraveling the anti-influenza effect of flavonoids: Experimental validation of luteolin and its congeners as potent influenza endonuclease inhibitors” (Eur J Med Chem, 2020).
Counter-ions that a name gives are not always drawn. Activity calls are given as the source filed them. No cut-off for these calls is given here.

Legend:
[1] = Inhibition of biotinylated 5-(4-((Z)-3-Carboxy-3-hydroxyacryloyl)-4-(4-chlorobenzyl)piperidine-1-carbonyl)-2-((13,35-dioxo-39-((3aR,4R,6aS)-2-oxohexahydro-1H-thieno[3,4-d]imidazole-4-yl)-3,6,9,16,19,22,25,28,31-nonaoxa-12,34-diazanonatriacontyl)oxy)benzoic acid binding to Influenza A virus (A/California/07/2009(H1N1)) N-terminal GST-tagged polymerase acidic subunit N-terminal domain expressed in Escherichia coli BL21 (DE3) RIL cells measured after 120 mins by Alphascreen assay
[2] = system: Influenza A virus (A/California/07/2009(H1N1)); experiment: (§1) Inhibition of endonuclease activity of Influenza A virus (A/California/07/2009(H1N1)) N-terminal GST-tagged polymerase acidic subunit N-terminal domain expressed in Escherichia coli BL21 (DE3) RIL cells using single-stranded circular DNA M13mp18 as substrate measured after 4 hrs by GelRed-staining based agarose gel electrophoresis
[3] = system: Influenza A virus (A/California/07/2009(H1N1)); experiment: Inhibition of Influenza A virus (A/California/07/2009(H1N1)) neuraminidase at 400 uM by DNA-linked inhibitor antibody assay
[4] = Inhibition of Influenza A virus (A/California/07/2009(H1N1)) neuraminidase by DNA-linked inhibitor antibody assay
[5] = system: Influenza A virus (A/California/07/2009(H1N1)); experiment: as §1, with “cells at 0.01 to 100 uM” for “cells”; details: dose 0.01-100 µM

Compound | IC50 [1] [µM] | further results
O=C(/C=C(O)/C=C/c1ccc(O)c(O)c1)/C=C/c1ccc(O)c(O)c1 | 1.7 | inhibition [2]: Active; inhibition [3]: inactive
O=C(/C=C(O)/C=C/c1ccc(O)cc1)/C=C/c1ccc(O)cc1 | > 50 | 
O=C1C=C(O)C(=O)c2c(O)c(O)cc(O)c21 | 0.43 | 
COc1cc(OC)c2c(=O)c(OC)c(-c3ccc(OC)c(OC)c3)oc2c1 | > 50 | 
COc1cc(OC)c2c(=O)cc(-c3cc(OC)c(OC)c(OC)c3)oc2c1 | 1.8 | 
O=c1cc(-c2ccc(O)c(O)c2)oc2ccccc12 | 2.4 | 
O=c1cc(-c2ccccc2O)oc2cc(O)cc(O)c12 | > 50 | 
O=c1cc(-c2ccc(O)c(O)c2)oc2cccc(O)c12 | 1.3 | 
O=c1cc(-c2cccc(O)c2)oc2cc(O)cc(O)c12 | > 50 | 
O=C(O)/C(O)=C/C(=O)C1(Cc2ccc(Cl)cc2)CCN(Cc2ccccc2)CC1 | 0.026 | IC50 (Influenza A virus): 0.43 µM
COc1cc([C@@H]2[C@H]3CO[C@@]4(C)C(=O)[C@@H]2C=C([C@H]2Oc5cc(O)cc(O)c5C(=O)[C@@H]2O)[C@@H]34)ccc1O | > 50 | 
O=c1cc(-c2ccc(O)c(O)c2)[nH]c2cc(O)cc(O)c12 |  | inhibition [2]: Active
O=C(c1ccc(O)c(O)c1)C1(O)Oc2cc(O)cc(O)c2C1=O (stereo not drawn) | 9.8 | 
O=c1c(O)c(-c2ccc(O)c(O)c2)[nH]c2cc(O)cc(O)c12 | 0.2 | 
CCCCC(=O)C1=C(O)C(=O)c2c(O)c(O)cc(O)c2C1=O | 0.29 | inhibition [2]: Active; inhibition [3]: inactive
O=C(NC(O)C(=O)O)c1ccccc1 (stereo not drawn) | > 50 | 
O=c1cc(-c2cccc(O)c2O)oc2cc(O)cc(O)c12 | 17 | 
O=c1cc(-c2cccc(O)c2)oc2cccc(O)c12 | > 50 | 
C[C@@H]1O[C@@H](Oc2c(-c3cc(O)c(O)c(O)c3)oc3cc(O)cc(O)c3c2=O)[C@H](O)[C@H](O)[C@H]1O | 1.8 | 
O=C1c2c(O)cc(O)cc2O[C@H](c2ccc(O)c(O)c2)[C@H]1O [(+)-TAXIFOLIN] | 50 | 

Compound | IC50 [1] [µM] | further results
Oc1cc(O)c2c(c1)O[C@@H](c1ccc(O)c(O)c1)[C@H](O)C2 [(-)-CATECHIN] | > 50 | 
Oc1cc(O)c2c(c1)O[C@H](c1ccc(O)c(O)c1)[C@H](O)C2 [(-)-EPICATECHIN] | > 50 | 
O=C1c2c(O)cc(O)cc2O[C@H](c2cc(O)c(O)c(O)c2)[C@H]1O [AMPELOPSIN] | 22 | 
O=c1cc(-c2ccc(O)cc2)oc2cc(O)cc(O)c12 [APIGENIN] | > 50 | 
O=C1c2c(O)c(=O)ccn2N([C@@H]2c3ccccc3SCc3c2ccc(F)c3F)[C@@H]2COCCN12 [BALOXAVIR] | 0.024 | 
O=C(/C=C/c1ccc(O)c(O)c1)O[C@@H]1C[C@](O)(C(=O)O)C[C@@H](O)[C@H]1O [CHLOROGENIC ACID] | > 50 | inhibition [3]: inactive
Oc1cc(O)c2c(c1)O[C@H](c1ccc(O)c(O)c1)[C@@H](O)C2 [CIANIDANOL] | 42 | 
COc1cc(/C=C/C(=O)CC(=O)/C=C/c2ccc(O)c(OC)c2)ccc1O [CURCUMIN] | 25 | 
COc1ccc(/C=C/C(=O)/C=C(O)/C=C/c2ccc(OC)c(OC)c2)cc1OC [DIMETHYLCURCUMIN] | > 50 | 
COc1ccc(-c2cc(=O)c3c(O)cc(O)cc3o2)cc1O [DIOSMETIN] | > 50 | 
Oc1cc(O)c2c(c1)O[C@H](c1cc(O)c(O)c(O)c1)[C@H](O)C2 [EPIGALLOCATECHIN] | 3.3 | 
O=C(O[C@@H]1Cc2c(O)cc(O)cc2O[C@@H]1c1cc(O)c(O)c(O)c1)c1cc(O)c(O)c(O)c1 [EPIGALOCATECHIN GALLATE] | 0.87 | inhibition [2]: Active; inhibition [3]: inactive
O=C1C[C@@H](c2ccc(O)c(O)c2)Oc2cc(O)cc(O)c21 [ERIODICTYOL] | 18 | 
COc1c(O)cc2oc(-c3ccc(O)c(O)c3)cc(=O)c2c1O [EUPAFOLIN] | 0.93 | 
Oc1ccc(C2CNCCc3c2cc(O)c(O)c3Cl)cc1 (stereo not drawn) [FENOLDOPAM MESYLATE] | 31 | 
O=c1c(O)c(-c2ccc(O)c(O)c2)oc2cc(O)ccc12 [FISETIN] | 0.96 | 
O=c1cc(-c2ccc(O)c(O)c2)oc2cc(O[C@@H]3O[C@H](CO)[C@@H](O)[C@H](O)[C@H]3O)cc(O)c12 [GALUTEOLIN] | 32 | 
O=c1c(-c2ccc(O)cc2)coc2cc(O)cc(O)c12 [GENISTEIN] | > 50 | 
Cc1cc2c(C(C)C)c(O)c(O)c(C=O)c2c(O)c1-c1c(C)cc2c(C(C)C)c(O)c(O)c(C=O)c2c1O [GOSSYPOL] | 13 | 
O=c1c(O[C@@H]2OC[C@H](O)[C@H](O)[C@H]2O)c(-c2ccc(O)c(O)c2)oc2cc(O)cc(O)c12 [GUAJAVERIN] | 17 | 

Compound | IC50 [1] [µM] | further results
O=c1cc(-c2ccc(O)c(O)c2)oc2cc(O)c([C@@H]3O[C@H](CO)[C@@H](O)[C@H](O)[C@H]3O)c(O)c12 [ISOORIENTIN] | > 50 | 
O=c1c(O)c(-c2ccc(O)cc2)oc2cc(O)cc(O)c12 [KAEMPFEROL] | 16 | 
CC(C)=CCC1=C(O)C(=O)c2ccccc2C1=O [LAPACHOL] | 19 | 
O=c1cc(-c2ccc(O)c(O)c2)oc2cc(O)cc(O)c12 [LUTEOLIN] | 0.072 | inhibition [2]: Active; inhibition [3]: inactive
O=c1c(O)c(-c2ccc(O)cc2O)oc2cc(O)cc(O)c12 [MORIN] | 9 | 
O=c1c(O)c(-c2cc(O)c(O)c(O)c2)oc2cc(O)cc(O)c12 [MYRICETIN] | 0.76 | inhibition [2]: Active; inhibition [3]: inactive
CCn1cc(C(=O)O)c(=O)c2ccc(C)nc21 [NALIDIXIC ACID] | > 50 | 
O=C1N[C@@H]2C(=C[C@H](O)[C@@H](O)[C@H]2O)c2cc3c(c(O)c21)OCO3 [NARCICLASINE] | > 50 | 
O=c1cc(-c2ccc(O)c(O)c2)oc2c([C@@H]3O[C@H](CO)[C@@H](O)[C@H](O)[C@H]3O)c(O)cc(O)c12 [ORIENTIN] | 0.043 | 
CCC(CC)O[C@@H]1C=C(C(=O)O)C[C@H](N)[C@H]1NC(C)=O [OSELTAMIVIR CARBOXYLATE] |  | Ki [4]: 0.039 µM
O=c1c(O)cccc2cc(O)c(O)c(O)c12 [PURPUROGALLIN] | 1.5 | 
O=c1c(O)c(-c2ccc(O)c(O)c2)oc2cc(O)cc(O)c12 [QUERCETIN] | 0.67 | inhibition [5]: Active; inhibition [3]: inactive
COc1cc(O)c2c(=O)c(OC)c(-c3ccc(OC)c(OC)c3)oc2c1 [RETUSIN] | > 50 | 
COc1cc([C@@H]2Oc3c(O)cc([C@H]4Oc5cc(O)cc(O)c5C(=O)[C@@H]4O)cc3[C@H]2CO)ccc1O [SILICRISTIN A] | > 50 | 
COc1cc([C@H]2Oc3cc([C@H]4Oc5cc(O)cc(O)c5C(=O)[C@@H]4O)ccc3O[C@@H]2CO)ccc1O [SILYBIN A] | > 50 | 
O=c1oc(-c2ccc(O)c(O)c2)cc2cccc(O)c12 [THUNBERGINOL A] | 1.4 | 
O=c1cc(-c2cc(O)c(O)c(O)c2)oc2cc(O)cc(O)c12 [TRICETIN] | 0.16 | 
O=c1cc(-c2ccc(O)cc2)oc2c([C@@H]3O[C@H](CO)[C@@H](O)[C@H](O)[C@H]3O)c(O)cc(O)c12 [VITEXIN] | 1.9 | inhibition [3]: inactive
